Data on 56 compounds can be found in patent US8927559B2, “Quinazolinone-type compounds as CRTH2 antagonists” (Merck Sharp & Dohme Corp., priority 2010, dated 2015).

The target of this test is T1, CRTH2 receptor (hCRTH2) (Homo sapiens, UniProt Q9Y5Y4).
T1 construct: expressed in transfected cells; host or cells: HEK cells (HEK-hCRTH2 cell line), membranes
T1 sequence (Q9Y5Y4 1-395): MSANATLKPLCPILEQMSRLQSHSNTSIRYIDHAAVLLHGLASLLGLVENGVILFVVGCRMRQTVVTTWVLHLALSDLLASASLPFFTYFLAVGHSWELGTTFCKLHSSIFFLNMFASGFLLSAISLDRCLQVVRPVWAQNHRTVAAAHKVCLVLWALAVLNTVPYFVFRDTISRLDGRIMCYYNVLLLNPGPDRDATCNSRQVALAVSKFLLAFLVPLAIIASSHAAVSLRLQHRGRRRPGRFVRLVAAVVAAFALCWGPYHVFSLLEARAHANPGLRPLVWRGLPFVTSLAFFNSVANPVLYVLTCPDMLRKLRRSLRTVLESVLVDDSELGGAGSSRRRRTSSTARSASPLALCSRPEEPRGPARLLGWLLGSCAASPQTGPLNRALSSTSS
As to the kind of experiment: Radioligand binding assay ([3H]PGD2 competition, membranes of HEK-hCRTH2 cell line). Conditions: 3.0 nM [3H]PGD2, HEK-hCRTH2 membranes, 60 min, room temperature; read-out: Ki. An outline of the steps:
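Membranes (8-20 μg protein) from HEK cells expressing human CRTH2 were incubated with [3H]PGD2 and competitor in 1% DMSO for 60 min at room temperature. Non-specific binding was defined with excess PGD2. Bound radioactivity was separated by filtration and counted by melt-on scintillation.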
One may read the Ki as a dissociation constant, usually derived from enzyme kinetics or from competition with a known ligand. With `C[C@@]1(c2nc3cc(F)c(F)cc3[nH]2)CC(c2ccc3c(=O)n(-c4ccc(Cl)cc4)c(CCCCC(=O)O)nc3c2)=NO1` [Example 224], the Ki was no more than 0.01 µM.

`C[C@]1(c2nc3cc(F)c(F)cc3[nH]2)CC(c2ccc3c(=O)n(-c4ccc(Cl)cc4)c(CCCCC(=O)O)nc3c2)=NO1` [Example 225]: the Ki fell in the range of 0.01 to 0.05 µM.

As to `CC1(c2ncc3ccccn23)CC(c2ccc3c(=O)n(-c4ccc(F)cc4)c(CCCCC(=O)O)nc3c2)=NO1` (centres unmarked) [Example 226], the Ki was 0.01 to 0.05 µM.

For `C[C@@]1(c2ncc3ccccn23)CC(c2ccc3c(=O)n(-c4ccc(F)cc4)c(CCCCC(=O)O)nc3c2)=NO1` [Example 227], the Ki was in the range of 0.01 to 0.05 µM.

`CC1(C(=O)Nc2ccc(F)cc2O)CC(c2ccc3c(=O)n(-c4ccc(F)cc4)c(CCCCC(=O)O)nc3c2)=NO1` (centres unmarked) [Example 229]: the Ki was no more than 0.01 µM.

As for `CC1(c2cnc3ccccc3n2)CC(c2ccc3c(=O)n(-c4ccc(F)cc4)c(CCCCC(=O)O)nc3c2)=NO1` (centres unmarked) [Example 230], the Ki was 0.01 to 0.05 µM.

Turning to `C[C@@]1(C(=O)Nc2ccc(F)cc2O)CC(c2ccc3c(=O)n(-c4ccc(F)cc4)c(CCCCC(=O)O)nc3c2)=NO1` [Example 231], the Ki is no more than 0.01 µM.

For `C[C@@]1(C(=O)NCc2ccccc2)CC(c2ccc3c(=O)n(-c4ccc(F)cc4)c(CCCCC(=O)O)nc3c2)=NO1` [Example 234], the Ki is 0.01 to 0.05 µM.

With `C[C@@]1(c2cccc(Br)c2)CC(c2ccc3c(=O)n(-c4ccc(F)cc4)c(CCCCC(=O)O)nc3c2)=NO1` [Example 235], the Ki was no more than 0.01 µM.

Consider `C[C@]1(c2cccc(Br)c2)CC(c2ccc3c(=O)n(-c4ccc(F)cc4)c(CCCCC(=O)O)nc3c2)=NO1` [Example 236], for which the Ki was 0.01 to 0.05 µM.

As to `C[C@@]1(C(=O)NCc2ccc(C#N)cc2)CC(c2ccc3c(=O)n(-c4ccc(F)cc4)c(CCCCC(=O)O)nc3c2)=NO1` [Example 237], the Ki was in the range of 0.01 to 0.05 µM.

As for `C[C@@]1(C(=O)N2Cc3ccccc3C2)CC(c2ccc3c(=O)n(-c4ccc(F)cc4)c(CCCCC(=O)O)nc3c2)=NO1` [Example 238], the Ki lay in the range of 0.01 to 0.05 µM.

`C[C@@]1(C(=O)N2CC[C@H](c3ccccc3)C2)CC(c2ccc3c(=O)n(-c4ccc(F)cc4)c(CCCCC(=O)O)nc3c2)=NO1` [Example 239]: the Ki lay in the range of 0.01 to 0.05 µM.

For the compound `COc1ccc(Cc2nc(-c3ccc4c(=O)n(-c5ccc(F)cc5)c(CCCCC(=O)O)nc4c3)no2)cc1` [Example 240], the Ki was no more than 0.01 µM.

For `O=C(O)CCCCc1nc2cc(-c3noc(CCc4ccc(F)cc4)n3)ccc2c(=O)n1-c1ccc(F)cc1` [Example 241], the Ki is no more than 0.01 µM.

For the compound `O=C(O)CCCCc1nc2cc(-c3noc(C4Cc5ccccc5C4)n3)ccc2c(=O)n1-c1ccc(F)cc1` [Example 242], the Ki was no more than 0.01 µM.

Take `N#Cc1ccc(Cc2nc(-c3ccc4c(=O)n(-c5ccc(F)cc5)c(CCCCC(=O)O)nc4c3)no2)cc1` [Example 243]: the Ki was 0.01 to 0.05 µM.

As to `O=C(O)CCCCc1nc2cc(-c3noc(C4CCCc5ccccc54)n3)ccc2c(=O)n1-c1ccc(F)cc1` (centres unmarked) [Example 244], the Ki was no more than 0.01 µM.

For the compound `O=C(O)CCCCc1nc2cc(-c3noc(C4CCCc5ccccc54)n3)ccc2c(=O)n1-c1ccc(F)cc1` (centres unmarked) [Example 245], the Ki is 0.01 to 0.05 µM.

Consider `O=C(O)CCCCc1nc2cc(-c3noc(C4CCc5ccccc5C4)n3)ccc2c(=O)n1-c1ccc(F)cc1` (centres unmarked) [Example 246], for which the Ki was no more than 0.01 µM.

`O=C(O)CCCCc1nc2cc(-c3noc(C4CCc5ccccc5C4)n3)ccc2c(=O)n1-c1ccc(F)cc1` (centres unmarked) [Example 247]: the Ki fell in the range of 0.01 to 0.05 µM.

With `O=C(O)CCCCc1nc2cc(-c3noc(-c4nc5ccc(F)cc5o4)n3)ccc2c(=O)n1-c1ccc(F)cc1` [Example 248], the Ki fell in the range of 0.01 to 0.05 µM.

As to `CC(c1ccc(F)cc1)c1nc(-c2ccc3c(=O)n(-c4ccc(F)cc4)c(CCCCC(=O)O)nc3c2)no1` (centres unmarked) [Example 249], the Ki was in the range of 0.01 to 0.05 µM.

For the compound `C=C(c1ccc(F)cc1)c1cc(-c2ccc3c(=O)n(-c4ccc(F)cc4)c(CCCCC(=O)O)nc3c2)no1` [Example 250], the Ki was no more than 0.01 µM.

For the compound `N#Cc1ccccc1C1CC(c2ccc3c(=O)n(-c4ccc(F)cc4)c(CCCCC(=O)O)nc3c2)=NO1` (centres unmarked) [Example 251], the Ki is no more than 0.01 µM.

Turning to `CC1(c2ccncc2)CC(c2ccc3c(=O)n(-c4ccc(F)cc4)c(CCCCC(=O)O)nc3c2)=NO1` (centres unmarked) [Example 252], the Ki was no more than 0.01 µM.

Regarding `CC1(c2cccnc2)CC(c2ccc3c(=O)n(-c4ccc(F)cc4)c(CCCCC(=O)O)nc3c2)=NO1` (centres unmarked) [Example 253], the Ki was no more than 0.01 µM.

Regarding `CCCC1(c2ccccc2)CC(c2ccc3c(=O)n(-c4ccc(F)cc4)c(CCCCC(=O)O)nc3c2)=NO1` (centres unmarked) [Example 254], the Ki was no more than 0.01 µM.

Regarding `CCCCC1(c2ccccc2)CC(c2ccc3c(=O)n(-c4ccc(F)cc4)c(CCCCC(=O)O)nc3c2)=NO1` (centres unmarked) [Example 255], the Ki was no more than 0.01 µM.

In the case of `CC[C@@](O)(c1ccc(F)cc1)c1cc(-c2ccc3c(=O)n(-c4ccc(F)cc4)c(CCCCC(=O)O)nc3c2)no1` [Example 256], the Ki is no more than 0.01 µM.

For `CC[C@](O)(c1ccc(F)cc1)c1cc(-c2ccc3c(=O)n(-c4ccc(F)cc4)c(CCCCC(=O)O)nc3c2)no1` [Example 257], the Ki was no more than 0.01 µM.

Regarding `C[C@@](O)(c1ccc(F)cc1)c1cc(-c2ccc3c(=O)n(-c4ccc(F)cc4)c(CCCCC(=O)O)nc3c2)no1` [Example 258], the Ki fell in the range of 0.01 to 0.05 µM.

Consider `C[C@](O)(c1ccc(F)cc1)c1cc(-c2ccc3c(=O)n(-c4ccc(F)cc4)c(CCCCC(=O)O)nc3c2)no1` [Example 259], for which the Ki lay within 0.01 to 0.05 µM.

As to `CC(c1ccc(F)cc1)c1cc(-c2ccc3c(=O)n(-c4ccc(F)cc4)c(CCCCC(=O)O)nc3c2)no1` (centres unmarked) [Example 260], the Ki is no more than 0.01 µM.

In the case of `CCC(c1ccc(F)cc1)c1cc(-c2ccc3c(=O)n(-c4ccc(F)cc4)c(CCCCC(=O)O)nc3c2)no1` (centres unmarked) [Example 261], the Ki was no more than 0.01 µM.

With `CC(c1ccc(F)cc1)C1(C)CC(c2ccc3c(=O)n(-c4ccc(F)cc4)c(CCCCC(=O)O)nc3c2)=NO1` (centres unmarked) [Example 262], the Ki was no more than 0.01 µM.

As for `C[C@H](c1ccc(F)cc1)c1cc(-c2ccc3c(=O)n(-c4ccc(F)cc4)c(CCCCC(=O)O)nc3c2)no1` [Example 263], the Ki is no more than 0.01 µM.

In the case of `C[C@@H](c1ccc(F)cc1)c1cc(-c2ccc3c(=O)n(-c4ccc(F)cc4)c(CCCCC(=O)O)nc3c2)no1` [Example 264], the Ki is no more than 0.01 µM.

In the case of `C[C@@H](O)c1cc(-c2ccc3c(=O)n(-c4ccc(F)cc4)c(CCCCC(=O)O)nc3c2)no1` [Example 265], the Ki was 0.01 to 0.05 µM.

With `C[C@@H](OCc1ccccc1)c1cc(-c2ccc3c(=O)n(-c4ccc(F)cc4)c(CCCCC(=O)O)nc3c2)no1` [Example 267], the Ki is 0.01 to 0.05 µM.

`C[C@H](Oc1ccc(F)cc1)c1cc(-c2ccc3c(=O)n(-c4ccc(F)cc4)c(CCCCC(=O)O)nc3c2)no1` [Example 268]: the Ki is no more than 0.01 µM.

Regarding `O=C(O)CCCCc1nc2cc(-c3cc(COCc4cc(F)cc(F)c4)on3)ccc2c(=O)n1-c1ccc(F)cc1` [Example 269], the Ki is no more than 0.01 µM.

Turning to `O=C(O)CCCCc1nc2cc(-c3cc(COCc4ccc(F)c(F)c4)on3)ccc2c(=O)n1-c1ccc(F)cc1` [Example 270], the Ki was no more than 0.01 µM.

Regarding `O=C(O)CCCCc1nc2cc(-c3cc(COCc4cc(F)cc(Cl)c4)on3)ccc2c(=O)n1-c1ccc(F)cc1` [Example 271], the Ki is no more than 0.01 µM.

On to `O=C(O)CCCCc1nc2cc(-c3cc(COCc4ccc(F)cc4F)on3)ccc2c(=O)n1-c1ccc(F)cc1` [Example 272], for which the Ki is no more than 0.01 µM.

In the case of `C[C@@H](OCc1cccc(F)c1)c1cc(-c2ccc3c(=O)n(-c4ccc(F)cc4)c(CCCCC(=O)O)nc3c2)no1` [Example 273], the Ki was no more than 0.01 µM.

Regarding `C[C@@H](OCc1ccc(F)c(F)c1)c1cc(-c2ccc3c(=O)n(-c4ccc(F)cc4)c(CCCCC(=O)O)nc3c2)no1` [Example 274], the Ki is 0.01 to 0.05 µM.

As for `O=C(O)CCCCc1nc2cc(-c3cc(COCc4cc(F)ccc4F)on3)ccc2c(=O)n1-c1ccc(F)cc1` [Example 275], the Ki was no more than 0.01 µM.

In the case of `O=C(O)CCCCc1nc2cc(-c3cc(COCc4cccc(F)c4)on3)ccc2c(=O)n1-c1ccc(F)cc1` [Example 276], the Ki is no more than 0.01 µM.

With `O=C(O)CCCCc1nc2cc(-c3cc(COCc4ccccc4)on3)ccc2c(=O)n1-c1ccc(F)cc1` [Example 277], the Ki lay in the range of 0.01 to 0.05 µM.

As to `O=C(O)CCCCc1nc2cc(-c3cc(COCc4ccc(F)cc4)on3)ccc2c(=O)n1-c1ccc(F)cc1` [Example 278], the Ki lay within 0.01 to 0.05 µM.

For the compound `O=C(O)CCCCc1nc2cc(-c3cc(COCc4ccccc4F)on3)ccc2c(=O)n1-c1ccc(F)cc1` [Example 279], the Ki was no more than 0.01 µM.

Consider `O=C(O)CCCCc1nc2cc(-c3cc(COCc4ccc(-c5ccccc5)cc4)on3)ccc2c(=O)n1-c1ccc(F)cc1` [Example 280], for which the Ki was 0.01 to 0.05 µM.

Consider `O=C(O)CCCCc1nc2cc(-c3cc(COCc4cccc(-c5ccccc5)c4)on3)ccc2c(=O)n1-c1ccc(F)cc1` [Example 281], for which the Ki fell in the range of 0.01 to 0.05 µM.

On to `O=C(O)CCCCc1nc2cc(-c3cc(COCc4cccc(-c5ccccc5)c4)on3)ccc2c(=O)n1-c1ccc(F)cc1` [Example 282], for which the Ki is no more than 0.01 µM.

In the case of `O=C(O)CCCCc1nc2cc(-c3cc(COCc4cccc5cccnc45)on3)ccc2c(=O)n1-c1ccc(F)cc1` [Example 283], the Ki lay within 0.01 to 0.05 µM.
